Experimental data taken from patent publication US4599357A, “1-mercaptoalkanoylindoline-2-carboxylic acids” (Ciba-Geigy Corporation, priority 1980, dated 1986).

Tested on: angiotensin I converting enzyme
Assay: inhibition of the angiotensin I pressor response in anesthetized normotensive rats
Assay type: in vivo
Procedure: The enzyme renin, normally causes specific hydrolysis of the circulating protein renin-substrate. This hydrolysis generates angiotensin I, which is further hydrolyzed by the action of said converting enzyme to the potent vasoconstrictor angiotensin II. The inhibition of said enzyme prevents the generation of angiotensin II from I and, therefore, attenuates any pressure response following an angiotensin I challenge.
The corresponding in vivo test is performed with male, normotensive rats, which are anesthetized with 100-120 mg/kg i.p. of sodium ethyl-(1-methylpropyl)malonylthiourea. A femoral artery and saphenous vein are cannulated for direct blood pressure measurement and i.v. administration of angiotensin I and compounds of this invention. After the basal blood pressure is stabilized, pressor responses to 3 challenges of 0.33 μg/kg of angiotensin I i.v., in 5 minute intervals, are obtained. Such pressure responses are again obtained 5, 10, 15, 30 and 60 minutes after either i.v., or p.o. administration (stomach tube) of the compounds to be tested, and compared with the initial responses. Any observed decrease of said pressor response is an indication of angiotensin I converting enzyme inhibition, ranging up to 80% after 10 mg/kg i.v., or 50 mg/kg p.o. doses, which decrease may be sustained up to 60 minutes.

`C[C@H](CS)C(=O)N1c2ccccc2C[C@H]1C(=O)O` [1-(3-mercapto-2S-methylpropanoyl)-indoline-2S-carboxylic acid] was tested, and the “inhibitory effect against the angiotensin I pressure response” value was “inhibitory effect”.
